Tests used:
[1] = system: chick chorioallantoic membrane (CAM); assay: Chick CAM angiogenesis induced by soluble RGD collagen peptides; format: in vivo
Experimental: (§1) The chick chorioallantoic membrane (CAM) assays were carried out with some modifications (19). For all experiments CAMs of 10-day-old chick embryos obtained from Charles River (North Franklin, Conn.) were separated from the shell membrane. Filter discs either non-treated (inflammation assays) pretreated (angiogenesis assays) with cortisone acetate (3.0 mg/ml) containing RPMI only or FGF-2 (40 ng). CAMs were either non-treated or treated topically with Mab XL313, XL166 or a non-specific control antibody (10 μg/embryo every 24 h for three consecutive treatments). […] At the end of the incubation period the embryos were sacrificed and the CAM tissues were analyzed. Angiogenesis was quantified by counting the number of angiogenic branching blood vessels within the area of the filter disc. The angiogenic index was determined by subtracting the mean number of blood vessel branch points from untreated CAMs from each experimental condition. Eight to twelve embryos were used per condition and experiments were repeated at least three times.

[2] = system: YAP; assay: Nuclear YAP in P-2 stimulated endothelial cells with Src or P38MAPK inhibitor; format: cell-based, human; conditions: inhibitor 10 μM; as compared to control; FIG. 8E, 8F
Experimental: (§2) Endothelial cells (HUVECs or HRMVECs) were incubated in serum free media with 1 mM MgCl2, 0.2 mM MnCl2 in the presence of a Src inhibitor, PP2, (10 μM) a P38MAPK inhibitor, SB202190 (10 μM) or vehicle only (DMSO) for 10 min at 37° C. Treated cells were then seeded on to immobilized P-1 and P-2 and lysates were collected at 15 min.
(§3) Whole cell and CAM tissue lysates were collected in RIPA buffer supplemented with 1× protease inhibitor and 1× phosphatase inhibitor and were run on polyacrylamide gels using denaturing conditions. Prior to loading the gels, 6× sample buffer was added to each of the lysates (final concentration 1×) and boiled for five minutes. Twenty to 50 μg of total protein were loaded into each lane. […] Gels were run at 60 volts (v) until the dye front passed through the stacking gel, and then the voltage was increased to 100V for the remainder of the separation. Precision Plus protein standards (Bio-Rad) were used to visualize migration. Protein was transferred to nitrocellulose membranes using a wet tank system and blocked for 1 h using 10% non-fat dried milk in tris-buffered saline with 0.01% Tween-20 (TBS-T). […] Membranes were washed 3 times in TBS-T for five minutes. Blots were then incubated with HRP conjugated secondary antibodies (1:15000) in 1% non-fat milk in TBS-T for 1 h. […] Western blot bands were quantified using Image J software based on pixel intensity.

[3] = system: P38MAPK; assay: Phosphorylated P38MAPK in HUVECs attached to collagen peptides (Western blot); format: cell-based, human; conditions: Src inhibitor PP2 10 μM; FIG. 7F
Experimental: as §2, §3

[4] = molecular target: T1, β3-integrin (Homo sapiens, UniProt P05106+P06756); assay: β3-integrin phosphorylation in endothelial cells attached to collagen peptides (Western blot); format: cell-based; conditions: Src inhibitor PP2 10 μM; FIG. 7E
T1 construct: endogenous in cells; host or cells: HUVEC
Experimental: as §2, §3

[5] = system: chick chorioallantoic membrane (CAM); assay: Chick CAM inflammation assay, FGF-2 induced, no cortisone acetate; format: in vivo; conditions: FGF-2 induced; vs no treatment or control antibody; FIG. 3E
Experimental: The chick chorioallantoic membrane (CAM) assays were carried out with some modifications (19). For all experiments CAMs of 10-day-old chick embryos obtained from Charles River (North Franklin, Conn.) were separated from the shell membrane. Filter discs either non-treated (inflammation assays) pretreated (angiogenesis assays) with cortisone acetate (3.0 mg/ml) containing RPMI only or FGF-2 (40 ng). CAMs were either non-treated or treated topically with Mab XL313, XL166 or a non-specific control antibody (10 μg/embryo every 24 h for three consecutive treatments). For peptide induction experiments, CAMs were stimulated with 100 ng/ml of the RGD peptides (P-1, P-2, P-C) in the presence or absence of the P38MAPK inhibitor, SB202190 (10 μM). At the end of the incubation period the embryos were sacrificed and the CAM tissues were analyzed. Angiogenesis was quantified by counting the number of angiogenic branching blood vessels within the area of the filter disc. The angiogenic index was determined by subtracting the mean number of blood vessel branch points from untreated CAMs from each experimental condition. Eight to twelve embryos were used per condition and experiments were repeated at least three times.
CAMs examined for accumulation of granulation tissue were harvested, fixed in 4% PFA and paraffin embedded and sectioned (4 μm) and stained with Giemsa. CAM tissues analyzed via immunofluorescence were harvested, embedded with OCT, snap frozen and sectioned ([…]). Frozen sections were fixed in 50% methanol/50% acetone, air dried and blocked with 2.5% BSA for 1 h at 37° C. For expression of the XL313 and XL166 epitopes as well as monocyte/macrophages, FGF-2 stimulated CAM tissues were stained with Mabs XL313, XL166 (50 μg/ml) or KUL1 (1:250) and then incubated with Alexa-488 labeled secondary antibodies (1:2000 dilution). […] Using a similar strategy, sections of RGD peptide-treated CAM tissues were analyzed for phosphorylated-P38MAPK in angiogenic vessels by co-incubation of anti-phospho-P38MAPK (1:50) and anti-vWf (1:500) antibodies. […]

[6] = system: chick chorioallantoic membrane (CAM); assay: Chick CAM inflammation induced by soluble RGD collagen peptides; format: in vivo; conditions: FIG. 5D
Experimental: as §1

[7] = system: Fak; assay: Fak phosphorylation in endothelial cells attached to collagen peptides; format: cell-based, human; conditions: serum free conditions
Experimental: Whole cell and CAM tissue lysates were collected in RIPA buffer supplemented with 1× protease inhibitor and 1× phosphatase inhibitor and were run on polyacrylamide gels using denaturing conditions. Prior to loading the gels, 6× sample buffer was added to each of the lysates (final concentration 1×) and boiled for five minutes. Twenty to 50 μg of total protein were loaded into each lane. For detection of proteins larger than 50 kD, 10% gels were used; for proteins smaller than 50 kD 15% gels were used. Gels were run at 60 volts (v) until the dye front passed through the stacking gel, and then the voltage was increased to 100V for the remainder of the separation. Precision Plus protein standards (Bio-Rad) were used to visualize migration. Protein was transferred to nitrocellulose membranes using a wet tank system and blocked for 1 h using 10% non-fat dried milk in tris-buffered saline with 0.01% Tween-20 (TBS-T). […] Western blot bands were quantified using Image J software based on pixel intensity.

[8] = system: HRMVEC; assay: Endothelial cell proliferation with soluble RGD peptides; format: cell-based, human; conditions: 100 ng/ml, 24 hours; FIG. 8D
Experimental: (§4) HUVECs (WT, shYAP1 or control transfected) or HRMVECs were plated at 2,000 cells per well with complete EGM-2 media containing 2.0% FBS in the absence or presence of P-1, P-2 or P-C (100 ng/ml) and allowed to grow for 24 hours. Cell growth was monitored using a BrdU or MMT assay kits according to manufacturer's instructions. All assays were completed at least three times in triplicate wells.

[9] = system: HUVEC; assay: as above; format: cell-based, human; conditions: 100 ng/ml, 24 hours; FIG. 8C
Experimental: as §4

[10] = system: endothelial cells transduced with YAP specific or non-specific shRNAs; assay: Growth of shRNA transduced endothelial cells with soluble RGD peptides; format: cell-based, human; conditions: non-specific shRNA; FIG. 8G
Experimental: as §4
Raw cells were transfected with 1 μg of HuSH shRNA plasmids for collagen type I, alpha 2 using Amaxa cell line nucleofector kit V (program #T024). Constructs expressing 21-nucleotide short hairpin RNAs (shRNA) targeting human YAP (shYAP) or non-targeting control (shNT, Sigma-Aldrich, SHC002) were used. Humantargeting shYAP1 lentiviral shRNA was obtained from the Thermo Scientific RNAi consortium (TRCN0000107625). Constructs were packaged into lentivirus, pseudotyped with the vesicular stomatitis virus glycoprotein. Transduction was performed by incubating cells with lentivirus, and stably transduced cells were subsequently used for studies. All cell lines were verified by morphology and mouse and human YAP-specific PCR. […] Endothelial cells were certified mycoplasma-negative by PCR (Lonza), and primary cell cultures were used within the indicated passage numbers. Cells were transduced and selected using puromycin.

[11] = system: human umbilical vein endothelial cell (HUVEC); assay: Cell adhesion to immobilized collagen RGD peptides; format: cell-based; conditions: peptide immobilized 100 μg/ml; FIG. 1A
Experimental: RGD peptides (P-1, P-2, P-3, P-4, P-5, and P-C) were immobilized (100 μg/ml) to wells. HUVEC, HMVEC, HRMVEC, and HDF cells were suspended in adhesion buffer (RPMI containing 1 mM MgCl2, 0.2 mM MnCl2 and 0.5% BSA) and 1×10^5 cells were seeded into the wells in the presence or absence of P4C10, LM609, P1F6 or control antibodies (100 μg/ml). Cells were allowed to attach for 25 min at 37° C. Media containing non-attached cells was aspirated and attached cells were washed with PBS and stained with crystal violet. Cell adhesion was quantified by measuring the optical density of eluted dye. Adhesion assays were completed at least three times with triplicate wells.

[12] = molecular target: Denatured collagen (collagen type-I boiled 15 minutes) (UniProt P02452); assay: cell-based or functional assay
[13] = molecular target: Denatured collagen (collagen type-I boiled 15 minutes) (UniProt P02452); assay: integrin blocking ELISA; denatured collagen wells pre-treated with anti-HU177 (0.1 µg/ml); competitor α2β1 (2.0 µg/ml)
[14] = molecular target: Denatured collagen (collagen type-I boiled 15 minutes) (UniProt P02452); assay: integrin blocking ELISA; denatured collagen wells pre-treated with anti-HU177 (0.1 µg/ml); competitor α10β1 (2.0 µg/ml)
[15] = molecular target: integrin αvβ3 on cells (HUVEC endothelial cells, M21 melanoma cells, human T-cells) (human, UniProt P06756 31-1048; P05106 27-788); assay: cell-based or functional assay
integrin αvβ3 on cells (HUVEC endothelial cells, M21 melanoma cells, human T-cells), sequence (P06756 31-1048, chain 1 of 2): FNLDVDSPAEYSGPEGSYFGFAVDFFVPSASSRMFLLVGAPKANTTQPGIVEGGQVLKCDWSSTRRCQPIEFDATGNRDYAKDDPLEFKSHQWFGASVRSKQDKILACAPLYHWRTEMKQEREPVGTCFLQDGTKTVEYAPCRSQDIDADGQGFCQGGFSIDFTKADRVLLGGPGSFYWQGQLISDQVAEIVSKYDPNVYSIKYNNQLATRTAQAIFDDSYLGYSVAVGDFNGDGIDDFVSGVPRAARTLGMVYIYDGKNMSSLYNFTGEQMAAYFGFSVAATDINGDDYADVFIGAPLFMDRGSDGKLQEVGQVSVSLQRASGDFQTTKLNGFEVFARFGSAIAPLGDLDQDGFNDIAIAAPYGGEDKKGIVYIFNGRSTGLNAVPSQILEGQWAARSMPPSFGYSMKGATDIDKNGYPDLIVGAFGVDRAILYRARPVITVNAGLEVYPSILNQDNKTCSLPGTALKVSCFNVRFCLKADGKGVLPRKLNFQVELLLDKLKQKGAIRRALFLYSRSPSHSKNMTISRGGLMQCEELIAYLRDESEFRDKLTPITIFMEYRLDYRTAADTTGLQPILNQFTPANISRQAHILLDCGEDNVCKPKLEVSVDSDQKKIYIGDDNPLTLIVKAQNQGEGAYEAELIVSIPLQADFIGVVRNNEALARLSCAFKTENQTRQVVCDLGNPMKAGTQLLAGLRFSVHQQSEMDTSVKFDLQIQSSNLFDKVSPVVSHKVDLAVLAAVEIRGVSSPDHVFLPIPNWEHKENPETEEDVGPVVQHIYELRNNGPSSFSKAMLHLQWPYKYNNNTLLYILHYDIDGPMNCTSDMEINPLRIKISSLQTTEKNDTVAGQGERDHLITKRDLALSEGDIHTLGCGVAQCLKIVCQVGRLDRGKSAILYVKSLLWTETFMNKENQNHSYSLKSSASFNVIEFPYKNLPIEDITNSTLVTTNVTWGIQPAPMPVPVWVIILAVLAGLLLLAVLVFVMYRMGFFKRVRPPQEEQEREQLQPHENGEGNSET
integrin αvβ3 on cells (HUVEC endothelial cells, M21 melanoma cells, human T-cells), sequence (P05106 27-788, chain 2 of 2): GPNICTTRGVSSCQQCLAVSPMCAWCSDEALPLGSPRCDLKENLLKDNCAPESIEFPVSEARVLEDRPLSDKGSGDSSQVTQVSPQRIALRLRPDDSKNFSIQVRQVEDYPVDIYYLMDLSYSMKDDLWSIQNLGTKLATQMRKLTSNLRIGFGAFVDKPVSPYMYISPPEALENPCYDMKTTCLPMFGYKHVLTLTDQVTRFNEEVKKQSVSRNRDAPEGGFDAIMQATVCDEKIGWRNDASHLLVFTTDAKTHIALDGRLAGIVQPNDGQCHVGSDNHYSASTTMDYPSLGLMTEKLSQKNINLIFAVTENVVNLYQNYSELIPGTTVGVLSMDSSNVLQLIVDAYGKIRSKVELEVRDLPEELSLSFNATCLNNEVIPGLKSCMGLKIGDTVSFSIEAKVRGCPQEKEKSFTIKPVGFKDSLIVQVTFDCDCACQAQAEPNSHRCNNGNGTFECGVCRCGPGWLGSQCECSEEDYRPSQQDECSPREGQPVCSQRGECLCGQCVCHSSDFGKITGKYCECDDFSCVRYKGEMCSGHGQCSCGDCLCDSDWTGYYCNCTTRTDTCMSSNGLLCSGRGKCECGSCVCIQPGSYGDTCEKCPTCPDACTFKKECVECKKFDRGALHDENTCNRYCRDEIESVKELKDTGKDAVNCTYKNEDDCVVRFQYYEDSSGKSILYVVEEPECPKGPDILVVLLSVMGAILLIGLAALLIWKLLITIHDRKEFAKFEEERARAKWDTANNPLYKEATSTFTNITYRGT

T1 sequence (P05106 27-788): as the sequence (P05106 27-788, chain 2 of 2) above
T1 sequence (P06756 31-889 limits assumed): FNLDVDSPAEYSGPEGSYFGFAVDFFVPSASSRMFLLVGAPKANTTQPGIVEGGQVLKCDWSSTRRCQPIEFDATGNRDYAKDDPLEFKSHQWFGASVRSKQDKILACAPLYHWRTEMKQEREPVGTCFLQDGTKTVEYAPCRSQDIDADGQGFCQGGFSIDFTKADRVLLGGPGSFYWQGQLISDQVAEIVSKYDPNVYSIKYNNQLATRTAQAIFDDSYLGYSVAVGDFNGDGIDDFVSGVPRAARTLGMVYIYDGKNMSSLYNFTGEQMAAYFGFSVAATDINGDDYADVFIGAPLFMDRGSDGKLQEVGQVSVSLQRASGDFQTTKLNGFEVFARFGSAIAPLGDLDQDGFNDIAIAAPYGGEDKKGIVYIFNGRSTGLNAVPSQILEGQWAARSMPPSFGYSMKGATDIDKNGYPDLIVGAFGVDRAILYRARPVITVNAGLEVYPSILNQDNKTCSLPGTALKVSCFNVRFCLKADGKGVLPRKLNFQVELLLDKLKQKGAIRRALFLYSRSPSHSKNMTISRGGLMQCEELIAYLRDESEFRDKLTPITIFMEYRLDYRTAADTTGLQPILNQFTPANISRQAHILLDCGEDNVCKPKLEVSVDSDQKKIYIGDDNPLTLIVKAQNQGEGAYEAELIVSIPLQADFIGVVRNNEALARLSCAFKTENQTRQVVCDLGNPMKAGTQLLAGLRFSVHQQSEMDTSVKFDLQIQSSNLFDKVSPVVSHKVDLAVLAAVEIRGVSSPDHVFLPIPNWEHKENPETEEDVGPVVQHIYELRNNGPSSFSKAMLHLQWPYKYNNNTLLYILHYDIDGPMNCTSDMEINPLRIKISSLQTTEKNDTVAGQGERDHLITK
T1 sequence (P06756 891-1048 partner limits assumed): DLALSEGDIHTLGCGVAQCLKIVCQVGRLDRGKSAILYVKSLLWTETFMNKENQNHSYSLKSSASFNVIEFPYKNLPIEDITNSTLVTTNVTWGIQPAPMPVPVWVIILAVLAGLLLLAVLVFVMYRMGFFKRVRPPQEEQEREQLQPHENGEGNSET

Oc1ccc(-c2nc(-c3ccncc3)c(-c3ccc(F)cc3)[nH]2)cc1 [P38MAPK inhibitor, SB202190, reference compound]
effect on P-2 induced angiogenesis in vivo ([1]; SB202190 10 μM, FIG. 6F): reduced
reduction of nuclear YAP accumulation following P-2 stimulation [2]: approximately 50%

CC(C)(C)n1nc(-c2ccc(Cl)cc2)c2c(N)ncnc21 [Src inhibitor, PP2, reference compound]
P38MAPK phosphorylation following binding to collagen peptide P-2 [3]: reduced
β3 phosphorylation following binding to collagen peptide P-2 [4]: reduced
reduction of nuclear YAP accumulation following P-2 stimulation [2]: approximately 50%

CC(=O)OCC(=O)[C@@]1(O)CC[C@H]2[C@@H]3CCC4=CC(=O)CC[C@]4(C)[C@H]3C(=O)C[C@@]21C [cortisone acetate]
reduction of the percentage of CAMs exhibiting thickening / inflammation [5]: greater than 80%

CKGDRGDAPGC [Mab P-1, RGDAPG containing collagen type-I peptide (…) with flanking cysteines]
induction of CAM angiogenesis as compared to no treatment ([1]; soluble peptide, FIG. 5C): not
CAM inflammation following stimulation with peptide [6]: Minimal evidence of tissue inflammation
Fak phosphorylation following ligation of peptide [7]: Minimal Fak phosphorylation
HRMVEC growth with soluble peptide [8]: minimal effect
HUVEC growth with soluble peptide [9]: minimal effect
growth of control transduced endothelial cells with soluble peptide [10]: not

CRGPRGDQGPC [Mab P-5]
HUVEC adhesion to immobilized peptide [11]: highest levels of adhesion

Mab HU177 (antibody)
basal migration of SKOV-3 cells and fibroblasts on denatured collagen [12]: 35 to 38%
decrease in SKOV-3 cell adhesion to denatured collagen [12]: 40%
decrease in fibroblast adhesion to denatured collagen [12]: 50%
percent inhibition of α2β1 binding to denatured collagen [13]: 30%
percent inhibition of α10β1 binding to denatured collagen [14]: 60%

B1: Synthetic collagen RGD containing peptide P-2 (CQGPRGDKGEC) (peptide)
peptide: CQGPRGDKGEC
Src phosphorylation in endothelial cells attached to the peptide (Western blot) [15]: ~2 fold
β3-integrin phosphorylation in endothelial cells attached to the peptide (Western blot) [15]: > 3 fold

— patent US10906977B2, “Enhancing the therapeutic activity of immune checkpoint inhibitor” (Maine Medical Center Research Institute, priority 2016, dated 2021)
